The text below walks through data of patent US20030188679A1, “Powdered mannitol and mannitol-containing compositions” (priority 2000, published 2003).

A value given as a limit tells only on which side of the number the result lay.

The series in a line: Particle size result of micronised salbutamol sulphate. It counts as physicochemical.

Salbutamol Sulphate: the “Particle size result: MMD (Mass Mean Diameter)” value is on record as “=2.53 μm”, the “Particle size result: fraction of particles >1 μm” value is recorded as 90.17% and the “Particle size result: size below which 90% of particles lie” value is <5.48 μm.
